For one data set, the target named is T1, aldose reductase (Rattus norvegicus, UniProt P07943).
T1 construct: the supernatant was used as the crude enzyme solution; from tissue; host or cells: lens of male Wistar rats (10,000 g supernatant of homogenate, crude enzyme)
Nature of the data set: Aldose reductase inhibiting activity (crude enzyme from rat lens, NADPH absorbance at 340 nm). It counts as biochemical, rat (Wistar strain). To be noted: DL-glyceraldehyde 10 mM, NADPH 0.104 mM, pH 6.2, Table 4, read-out: IC50 (50% inhibition concentration), aldose reductase. The method, then: Thus, Wistar strain male rats were sacrificed by decapitation, the lenses were excised and homogenized with a 0.1 M phosphate buffer [pH 6.8; containing 1 mM of mercaptoethanol and 1 mM of nicotinamide-adenine dinucleotide phosphate (NADP)]. The homogenate was then centrifuged at 10,000 g for 15 minutes and the supernatant was used as the crude enzyme solution.
To this buffer solution, there was added 15 μl of each of solutions of each test compound in varied concentrations, followed by addition of 25 μl of the crude enzyme solution prepared in advance, to thereby initiate the reaction.

Data set [1] relates to thrombin-induced aggregation of washed rabbit platelets. Nature of the data set: Platelet aggregation inhibiting activity (thrombin-stimulated washed rabbit platelets, aggregometer). As to conditions: for IC50: Oryctolagus cuniculus, Platelet; for platelet aggregation inhibiting activity, in words: comparison with other compounds or Dipyridamole (Persantine). In kind it is cell-based, rabbit (albino, white local breed). The method, then:
The platelets were suspended in a 15 mM Tris-hydrochloric acid buffer in a final concentration of 6×10^8 cells/ml (Tris: tris(hydroxymethyl)aminomethane). Each test compound was added thereto and incubation was carried out at 37° C. for 2 minutes. Then, the platelets were stimulated by addition of thrombin (final concentration 0.2 unit/ml; made by Mochida Pharmaceutical Co.) and the aggregation inhibiting activity was estimated by observation of the aggregation reaction using an aggregometer (made by Briston Co.).

Data set [2] in a line: Acute toxicity in mice (oral). In kind it is in vivo. To be noted: mouse, in vivo, male ddY mice, 2 weeks. From the text:
(§1) The acute toxicity in mice was examined with the rhodanine derivative (I) of the present invention.

The test system of another data set is male ddY strain mice. Kind of data set: Acute toxicity in mice (oral). To be noted: 2 weeks. In kind it is in vivo.
From the text: as §1

Where [3] appears, read: 2 min, read-out: IC50 (50 % inhibition concentration), platelet aggregation.
Where [4] appears, read: washed rabbit platelets, read-out: concentration inhibiting thrombin-induced aggregation by 50%.
Setting [5] is: 2 min, washed rabbit platelets 6×10^8 cells/ml, thrombin 0.2 unit/ml, 37° C., 2 minutes, Table 3, read-out: IC50 (50 % inhibition concentration), platelet aggregation.

The results in this text go back to US4606860A, “Rhodanines useful as a therapeutic agent for diabetic complications” (Kaken Pharmaceutical Co., Ltd., priority 1984, dated 1986).

Structures can show the parent of a compound that is named as a salt. Where two headings read alike, the source gives them in different places.

Consider `C=CCNC=C1SC(=S)N(CC(=O)O)C1=O` [Compound No. 4, 3-Carboxymethyl-5allylaminomethylidenerhodanine], for which, on aldose reductase, the IC50 worked out at 0.3 µM.

In general, LD50 refers to the dose at which mortality reaches 50%. A lower LD50 goes with a more toxic substance. On to `COc1cccc(NC=C2SC(=S)N(CC(=O)O)C2=O)c1` [Compound No. 7, 3-Carboxymethyl-5-m-methoxyphenylaminomethylidene-rhodanine], for which the IC50 in data set [1] (setting [3]) came to 310 µM; in data set [1] (setting [4]) it was 300 µM; at aldose reductase, 0.026 µM. Besides, the “platelet aggregation inhibiting activity, in words” value in data set [1] is recorded as “almost comparable in said activity to Dipyridamole”. This compound displayed an LD50 at 336 h in data set [2] of more than 4000 mg/kg. The “deaths noted up to a dose of 4 g/kg body weight” value (shortened to “deaths noted up to a dose”) in the data set on male ddY strain mice was “no deaths were noted”.

Regarding `CN1CCCN(C=C2SC(=S)N(CC(=O)O)C2=O)CC1` [Compound No. 14, 3-Carboxymethyl-5-N-methylhomopiperazinomethylidenerhodanine], the IC50 at aldose reductase worked out at 1.3 µM.

With `COc1ccccc1NC=C1SC(=S)N(CC(=O)O)C1=O` [Compound No. 8, 3-Carboxymethyl-5-o-methoxyphenylaminomethylidenerhodanine], the IC50 came to 310 µM in data set [1] (setting [5]), 300 µM in data set [1] (setting [4]) and 0.05 µM at aldose reductase. For the same compound, in data set [1], the “platelet aggregation inhibiting activity, in words” value is on record as “almost comparable in said activity to Dipyridamole”.

On to `Cc1cccc(NC=C2SC(=S)N(CC(=O)O)C2=O)c1` [Compound No. 11, 3-Carboxymethyl-5-m-methylphenylaminomethylidenerhodanine], for which the IC50 in data set [1] (setting [3]) came to 320 µM; in data set [1] (setting [4]), 300 µM; at aldose reductase, 0.036 µM. In addition, the “platelet aggregation inhibiting activity, in words” value in data set [1] was “almost comparable in said activity to Dipyridamole”. Moreover, the LD50 at 336 h in data set [2] is more than 4000 mg/kg. Besides, in the data set with male ddY strain mice, the “deaths noted up to a dose” value is reported as “no deaths were noted”.

For the compound `O=C(O)CN1C(=O)C(=CNc2ccccc2-c2ccccc2)SC1=S` [Compound No. 15, 3-Carboxymethyl-5-(2-biphenylyl)aminomethylidenerhodanine], the values for the IC50 (in data set [1] (setting [3]); on aldose reductase) were 410 µM and 0.15 µM, respectively. Also, the LD50 at 336 h in data set [2] is more than 4000 mg/kg. In addition, the “deaths noted up to a dose” value in the data set on male ddY strain mice is recorded as “no deaths were noted”.

Regarding `CC(C)CNC=C1SC(=S)N(CC(=O)O)C1=O` [Compound No. 5, 3-Carboxymethyl-5-isobutylaminomethylidenerhodanine], the IC50 on aldose reductase worked out at 0.6 µM.

Turning to `CN1CCN(C=C2SC(=S)N(CC(=O)O)C2=O)CC1` [Compound No. 13, 3-Carboxymethyl-5-N-methylpiperazinomethylidenerhodanine], the IC50 on aldose reductase amounted to 0.2 µM.

In the case of `O=C(O)CN1C(=O)C(=CNc2ccc(Br)cc2)SC1=S` [Compound No. 10, 3-Carboxymethyl-5-p-bromophenylaminomethylidenerhodanine], the IC50 in data set [1] (setting [5]) was 300 µM; in data set [1] (setting [4]) it was 300 µM; at aldose reductase it was 0.05 µM. In addition, the “platelet aggregation inhibiting activity, in words” value in data set [1] is reported as “almost comparable in said activity to Dipyridamole”.

Regarding `CNC=C1SC(=S)N(CC(=O)O)C1=O` [Compound No. 1, 3-Carboxymethyl-5-methylaminomethylidenerhodanine], the IC50 at aldose reductase was 1.3 µM.

`OCCN(CCO)c1nc(N2CCCCC2)c2nc(N(CCO)CCO)nc(N3CCCCC3)c2n1` [Dipyridamole, reference compound]: the IC50 in data set [1] (setting [5]) came to 200 µM.

For the compound `O=C(O)CN1C(=O)C(=CNCCO)SC1=S` [Compound No. 3, Ethanolamine salt of 3-Carboxymethyl-5-hydroxyethylaminomethylidenerhodanine], the IC50 on aldose reductase was 0.7 µM.

With `O=C(O)CN1C(=O)C(=CNc2cccc(Cl)c2)SC1=S` [Compound No. 9, 3-Carboxymethyl-5-m-chlorophenylaminomethylidenerhodanine], the IC50 in data set [1] (setting [4]) stood at 300 µM; on aldose reductase it was 0.023 µM. In addition, the “platelet aggregation inhibiting activity, in words” value in data set [1] is “almost comparable in said activity to Dipyridamole”. Also, the LD50 at 336 h in data set [2] was more than 4000 mg/kg. Besides, the “deaths noted up to a dose” value in the data set with male ddY strain mice is on record as “no deaths were noted”.

As for `CN(C)C=C1SC(=S)N(CC(=O)O)C1=O` [Compound No. 2, 3-Carboxymethyl-5-dimethylaminomethylidenerhodanine], on aldose reductase, the IC50 turned out to be 0.65 µM.

For `CCCCCCNC=C1SC(=S)N(CC(=O)O)C1=O` [Compound No. 6, 3-Carboxymethyl-5-hexylaminomethylidenerhodanine], the IC50 on aldose reductase turned out to be 0.28 µM.

Consider `O=C(O)CN1C(=O)C(=CN2CCOCC2)SC1=S` [Compound No. 12, 3-Carboxymethyl-5-morpholinomethylidenerhodanine], for which the IC50 on aldose reductase was determined as 0.34 µM.
